# Laboratory results from publication PMC9330476 (Toxins, 2022).
# Entries after “also recorded” stand apart in the source; their conditions may differ. Bridge positions count the residues as written; N and C are the ends. Ends that are not written are not given here. I, II: the chains in the order shown.
# How the values were obtained:
# [1] = target: hα7 nAChR (Homo sapiens, UniProt P36544); assay type: cell-based
# [2] = target: hα4β2 nAChR (Homo sapiens, UniProt P17787+P43681); assay type: cell-based
# hα4β2 nAChR, sequence (P43681 29-627 limits assumed): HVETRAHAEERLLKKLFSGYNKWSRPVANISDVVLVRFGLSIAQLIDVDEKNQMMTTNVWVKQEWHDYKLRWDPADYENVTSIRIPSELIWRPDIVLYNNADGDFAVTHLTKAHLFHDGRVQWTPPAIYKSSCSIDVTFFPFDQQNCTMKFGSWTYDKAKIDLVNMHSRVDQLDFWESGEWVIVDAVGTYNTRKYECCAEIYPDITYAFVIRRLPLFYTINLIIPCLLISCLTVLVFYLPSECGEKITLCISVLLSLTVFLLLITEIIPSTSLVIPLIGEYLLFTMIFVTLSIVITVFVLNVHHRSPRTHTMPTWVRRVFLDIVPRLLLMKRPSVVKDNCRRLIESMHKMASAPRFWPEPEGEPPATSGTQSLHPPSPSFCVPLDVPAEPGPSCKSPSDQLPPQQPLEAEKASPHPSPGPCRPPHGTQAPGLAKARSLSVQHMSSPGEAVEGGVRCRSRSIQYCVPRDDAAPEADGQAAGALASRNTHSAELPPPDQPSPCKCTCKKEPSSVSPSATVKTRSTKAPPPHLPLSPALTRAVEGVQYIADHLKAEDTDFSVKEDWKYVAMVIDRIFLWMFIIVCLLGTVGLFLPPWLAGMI
# hα4β2 nAChR, sequence (P17787 26-502 limits assumed): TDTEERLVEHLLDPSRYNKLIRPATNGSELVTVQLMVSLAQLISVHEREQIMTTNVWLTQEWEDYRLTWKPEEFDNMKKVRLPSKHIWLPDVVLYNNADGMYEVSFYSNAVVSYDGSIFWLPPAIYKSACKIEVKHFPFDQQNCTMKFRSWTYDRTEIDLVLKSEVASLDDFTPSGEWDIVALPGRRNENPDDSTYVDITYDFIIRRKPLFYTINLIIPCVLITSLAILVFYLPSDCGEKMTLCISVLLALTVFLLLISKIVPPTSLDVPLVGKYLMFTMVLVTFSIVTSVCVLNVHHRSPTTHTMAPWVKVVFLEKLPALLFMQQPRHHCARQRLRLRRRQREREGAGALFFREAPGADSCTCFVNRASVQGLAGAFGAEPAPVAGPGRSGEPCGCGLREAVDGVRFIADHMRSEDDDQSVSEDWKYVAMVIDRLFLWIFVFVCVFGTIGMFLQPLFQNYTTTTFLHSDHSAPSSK
# hα7 nAChR, sequence (P36544 23-502 limits assumed): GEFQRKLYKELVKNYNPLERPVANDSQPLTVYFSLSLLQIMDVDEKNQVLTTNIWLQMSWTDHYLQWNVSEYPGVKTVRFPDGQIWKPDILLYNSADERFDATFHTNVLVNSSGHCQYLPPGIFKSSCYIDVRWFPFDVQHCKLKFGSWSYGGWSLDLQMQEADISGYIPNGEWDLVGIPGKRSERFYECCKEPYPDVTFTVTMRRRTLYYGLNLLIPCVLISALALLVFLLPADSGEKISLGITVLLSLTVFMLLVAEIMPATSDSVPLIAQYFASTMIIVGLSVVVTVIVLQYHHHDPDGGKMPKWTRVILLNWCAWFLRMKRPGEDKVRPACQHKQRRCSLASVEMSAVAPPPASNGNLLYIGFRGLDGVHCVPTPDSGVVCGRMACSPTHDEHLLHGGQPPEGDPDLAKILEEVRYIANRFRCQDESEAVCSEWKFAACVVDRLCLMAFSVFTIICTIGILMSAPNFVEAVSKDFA
substance,measurement,setting,value
"I: EARITCQPRGRSKWGRCCLTQMCGNYCCYKHGCRCVYHSWRGHGCSC / II: EARITCQPRGRSKWGRCCLTQMCGNYCCYKHGCRCVYHSWRGHGCSC (disulfide I:6-II:18, I:17-I:27, I:18-II:6, I:23-I:35, I:28-I:45, I:33-I:47, II:17-II:27, II:23-II:35, II:28-II:45, II:33-II:47) [αD-FrXXA]",dissociation / reversibility on hα7,[1],the slower dissociation was for hα7 subtype (almost irreversible)
same,dissociation / reversibility on hα4β2,[2],the fastest was for hα4β2 subtype; also recorded: reversible almost entirely within a few minutes of washing
